Test results from patent publication EP0671947B1, “COMPOSITIONS FOR ELICITING CYTOTOXIC T-[…] AGAINST VIRUSES” (BOARD OF REGENTS THE UNIVERSITY OF TEXAS SYSTEM, priority 1991, dated 1993).
“And” between values parts separate entries of the source, which are not always exact repeats. Identical values can stand only once.

What was measured:
[1] = tested on: HIV-1; type: cell-based; settings: various concentrations, seven days after infection
[2] = tested on: envelope protein gp160 of HIV-1 IIIB, mn or rf strains; type: cell-based
[3] = tested on: PBMC; assay: PBMC proliferation after immunization with a mixture of eight synthetic peptides; type: in vivo, rhesus monkeys; settings: three rhesus monkeys immunized with mixture of eight peptides
Description: In the present studies, three rhesus monkeys (#7, #23 and #283C) were immunized subcutaneously with 1 ml (0.1 ml/site) of a mixture of eight synthetic peptides (300 µg of each peptide in sterile water) emulsified in complete Freund's adjuvant at 1:1 ratio. […] At 3 and 7 weeks after the primary immunization, two booster injections of the peptide mixture (150 µg of each peptide in sterile water) emulsified in incomplete Freund's adjuvant were given to each monkey. Monkey #7 was terminated after 34 weeks, for health reasons unrelated to the study, while the remaining two monkeys (#283C and #23) received one additional booster injection at 25 weeks.
At two week intervals following the first immunization of each animal, 15 ml of whole heparinized blood was collected by venous puncture. The peripheral blood mononuclear cells (PBMC) were separated by standard ficoll-hypaque centrifugation and employed in proliferation assays. The PBMCs were monitored every two weeks for a period of 32 weeks for proliferative responses against individual peptides and recombinant gp160.

[4] = type: in vivo, Balb/c mice; settings: mouse, in vivo
[5] = tested on: HIV-1 IIIB; assay: Effect of V3 loop peptides on HIV-1 IIIB infection of human cells (RT activity); type: cell-based
Description: As detailed in TABLE 11A, these peptides include D23, D24, D25, D26, D30, D35, D38, D39, D40 and D44, which reflect a variety of strains such as mn, rf, wmj-3, sc, z6, eli, mn (y-l) and mn (y-p). However, it is important to note that this assay was confined specifically to inhibiting the infection of the heterologous strain HIV-1 IIIB. […]

[6] = tested on: P815
[7] = tested on: 3A9; type: in vivo, Balb/c mice; settings: mouse, in vivo
[8] = tested on: HIV-1; type: cell-based, HIV-1 IIIB
[9] = tested on: HIV-1; type: cell-based; settings: seven days after infection
[10] = tested on: HIV-1; type: cell-based; settings: various concentrations, seven days after infection; remark: listed apart in the source

RIQRGPGRAFVTIGK [Peptide R15K]
HIV-1 infection of H9 cells, reverse transcriptase activity in culture supernatant [1]: inhibits HIV-1 infection | syncytia [2]: no syncytia were observed | proliferative responses of PBMCs (in words) [3]: A significant response was not detected | time to CTL induction in the popliteal lymph node [4]: ≤ 7 days | % RT INHIBITION [5]: 73.2% | RT ACTIVITY (CPM) ([5]; No Peptide 7528, Uninfected cells 558): 2021 CPM | cytotoxicity after pre-treatment of effector cells with anti-CD4 MAbs plus complement, or complement alone ([6]; monomeric peptide): no significant effect | Lysis of MHC-matched target cells without peptide pre-treatment (P815) ([6]; mouse, in vivo): not observed | cytotoxicity after treatment of CTL effectors with anti-CD8 MAbs and rabbit complement ([6]; mouse, in vivo): abolished the cytotoxicity | lysis of P815 cells infected with recombinant vaccinia virus expressing HIV gp160 (VPE16) ([6]; mouse, in vivo): specifically lysed | mice with CTLs specifically lysing P815 pre-incubated with the peptide ([6]; mouse, in vivo): 8 of 12 and 13 of 13 and 6 of 8 | inhibitory activity retained, of control untreated peptide (bovine, fetal calf serum, 24 h): 50% | time for which full strength inhibitory activity was retained (incubation in fetal calf serum at 37°C, tested at 1 µg/ml on MT-4 cells): up to 4 hours | % Specific Lysis [7]: 7.0% and 0.6% and 0% and 10.0% and 8.0% | inhibition of HIV-1 infection of primary human T cells [8]: 92% | HIV-1 infection of MT-4 cells, reverse transcriptase activity in culture medium [9]: inhibits HIV-1 infection | HIV-1 infection of CEM cells, reverse transcriptase activity in culture supernatant [10]: inhibits HIV-1 infection
